Target: EGFR (ErbB1) (Homo sapiens, UniProt P00533)
Assay: High-throughput kinase assay
Type: biochemical
Conditions: 100 nM; read-out: Percent inhibition of kinase activity in vitro, EGFR (ErbB1)
Method: (§1) Screening of Compounds 1-4 against several kinases identified two prominent targets of these compounds as the Aurora A kinase and calcium dependent protein kinase C isoforms α, βI, βII and […] (Tables 1 to 3). IC50s for these two targets were obtained by plotting inhibition levels at 500 nM, 100 nM, 50 nM and 10 nM (FIG. 3). These kinases are directly involved in pathways controlling cell differentiation programs, metastasis signaling, as well as EMT and CSC programming and their overexpression was reported to predict decreased metastasis-free survival.

Sequence of EGFR (ErbB1) (P00533 25-1210): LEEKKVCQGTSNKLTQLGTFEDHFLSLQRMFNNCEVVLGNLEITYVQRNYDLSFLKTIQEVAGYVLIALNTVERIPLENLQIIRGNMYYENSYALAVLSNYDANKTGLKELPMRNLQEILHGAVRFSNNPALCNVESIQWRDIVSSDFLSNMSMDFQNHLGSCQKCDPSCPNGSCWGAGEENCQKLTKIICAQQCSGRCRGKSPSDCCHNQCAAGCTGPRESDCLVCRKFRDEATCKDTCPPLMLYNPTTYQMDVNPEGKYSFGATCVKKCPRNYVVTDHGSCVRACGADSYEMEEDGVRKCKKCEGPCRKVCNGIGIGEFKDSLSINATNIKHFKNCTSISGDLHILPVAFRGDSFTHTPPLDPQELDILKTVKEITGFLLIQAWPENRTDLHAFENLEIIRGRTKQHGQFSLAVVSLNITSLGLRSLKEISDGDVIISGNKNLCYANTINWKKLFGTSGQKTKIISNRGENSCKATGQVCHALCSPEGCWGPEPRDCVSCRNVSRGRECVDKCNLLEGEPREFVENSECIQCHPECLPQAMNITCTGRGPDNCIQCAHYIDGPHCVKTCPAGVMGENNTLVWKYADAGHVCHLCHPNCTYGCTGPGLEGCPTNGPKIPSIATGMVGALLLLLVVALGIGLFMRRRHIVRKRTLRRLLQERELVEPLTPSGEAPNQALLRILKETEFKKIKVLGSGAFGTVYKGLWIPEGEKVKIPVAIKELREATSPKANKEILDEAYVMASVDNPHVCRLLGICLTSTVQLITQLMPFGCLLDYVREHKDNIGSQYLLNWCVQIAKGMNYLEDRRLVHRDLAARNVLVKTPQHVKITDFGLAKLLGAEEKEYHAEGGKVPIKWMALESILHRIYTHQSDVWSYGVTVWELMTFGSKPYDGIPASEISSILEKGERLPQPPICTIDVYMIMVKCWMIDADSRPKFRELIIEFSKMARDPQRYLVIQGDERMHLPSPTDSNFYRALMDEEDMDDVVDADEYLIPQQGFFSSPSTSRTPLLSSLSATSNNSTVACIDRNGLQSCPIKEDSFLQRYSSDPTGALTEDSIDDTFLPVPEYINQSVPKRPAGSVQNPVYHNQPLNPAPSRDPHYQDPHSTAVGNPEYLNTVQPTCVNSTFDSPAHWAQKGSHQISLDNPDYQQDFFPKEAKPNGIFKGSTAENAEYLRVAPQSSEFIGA

Compound	inhibition at 0.1 µM
O=c1c2ccccc2[se]n1-c1nc(N[C@H]2CC[Se]C2)c2nc[nH]c2n1 [Compound 4]	0%
O=c1c2ccccc2[se]n1-c1nc(NC2CCCCC2)c2nc[nH]c2n1 [Compound 1]	1%
O=C1c2ccccc2CN1c1nc(NC2CCCCC2)c2nc[nH]c2n1 [SLLN-6C, reference compound]	4%

Same assay, conditions: 500 nM; read-out: Percent inhibition of kinase activity in vitro, EGFR (ErbB1)

Compound	inhibition at 0.5 µM
O=c1c2ccccc2[se]n1-c1nc(NC2CCCCC2)c2nc[nH]c2n1 [Compound 1]	0%
O=c1c2ccccc2[se]n1-c1nc(NC2CC[Se]C2)c2nc[nH]c2n1 (stereo not drawn) [Compound 2]	0%
C[C@@H]1C(Nc2nc(-n3[se]c4ccccc4c3=O)nc3[nH]cnc23)C[C@H]2C[C@@H]1C2(C)C (stereo partly drawn) [Compound 3]	0%

Target: PDGFRA (PDGFR alpha) (Homo sapiens, UniProt P16234)
Sequence (P16234 24-1089): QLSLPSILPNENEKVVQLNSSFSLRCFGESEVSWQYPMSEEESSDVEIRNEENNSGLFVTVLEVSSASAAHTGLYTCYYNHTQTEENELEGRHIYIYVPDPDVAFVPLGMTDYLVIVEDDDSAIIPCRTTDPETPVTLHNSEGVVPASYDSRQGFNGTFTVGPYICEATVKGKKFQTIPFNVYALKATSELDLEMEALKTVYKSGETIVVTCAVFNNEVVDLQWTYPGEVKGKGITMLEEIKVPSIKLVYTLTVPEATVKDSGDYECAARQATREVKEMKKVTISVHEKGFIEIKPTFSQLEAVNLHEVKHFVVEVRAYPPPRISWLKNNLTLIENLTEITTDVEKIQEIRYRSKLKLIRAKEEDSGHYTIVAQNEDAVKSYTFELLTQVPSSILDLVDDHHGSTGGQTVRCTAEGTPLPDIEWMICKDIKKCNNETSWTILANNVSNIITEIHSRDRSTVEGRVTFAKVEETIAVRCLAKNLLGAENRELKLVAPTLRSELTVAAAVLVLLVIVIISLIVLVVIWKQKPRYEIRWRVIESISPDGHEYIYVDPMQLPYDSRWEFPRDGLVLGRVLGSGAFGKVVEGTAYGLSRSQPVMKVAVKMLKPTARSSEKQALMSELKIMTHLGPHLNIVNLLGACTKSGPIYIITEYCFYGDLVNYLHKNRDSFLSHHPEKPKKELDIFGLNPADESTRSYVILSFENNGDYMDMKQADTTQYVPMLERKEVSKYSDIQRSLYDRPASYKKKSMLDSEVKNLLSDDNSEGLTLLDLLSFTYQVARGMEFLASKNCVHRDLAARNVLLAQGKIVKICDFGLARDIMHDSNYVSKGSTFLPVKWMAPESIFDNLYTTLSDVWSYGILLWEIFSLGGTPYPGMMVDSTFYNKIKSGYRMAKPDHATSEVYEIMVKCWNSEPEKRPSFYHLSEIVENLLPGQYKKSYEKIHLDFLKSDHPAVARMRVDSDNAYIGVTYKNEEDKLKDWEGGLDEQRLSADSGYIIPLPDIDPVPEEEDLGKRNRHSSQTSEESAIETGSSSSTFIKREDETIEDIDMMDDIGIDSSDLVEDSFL
Assay: High-throughput kinase assay
Type: biochemical
Conditions: 100 nM; read-out: Percent inhibition of kinase activity in vitro, PDGFRA (PDGFR alpha)
Method: as §1

Compound	inhibition at 0.1 µM
O=c1c2ccccc2[se]n1-c1nc(N[C@H]2CC[Se]C2)c2nc[nH]c2n1 [Compound 4]	1%
O=c1c2ccccc2[se]n1-c1nc(NC2CCCCC2)c2nc[nH]c2n1 [Compound 1]	0%
O=C1c2ccccc2CN1c1nc(NC2CCCCC2)c2nc[nH]c2n1 [SLLN-6C, reference compound]	0%

Same assay, conditions: 500 nM; read-out: Percent inhibition of kinase activity in vitro, PDGFRA (PDGFR alpha)

Compound	inhibition at 0.5 µM
O=c1c2ccccc2[se]n1-c1nc(NC2CCCCC2)c2nc[nH]c2n1 [Compound 1]	3%
O=c1c2ccccc2[se]n1-c1nc(NC2CC[Se]C2)c2nc[nH]c2n1 (stereo not drawn) [Compound 2]	4%
C[C@@H]1C(Nc2nc(-n3[se]c4ccccc4c3=O)nc3[nH]cnc23)C[C@H]2C[C@@H]1C2(C)C (stereo partly drawn) [Compound 3]	5%

Target: T1, PRKCE (PKC epsilon) (Homo sapiens, UniProt Q02156)
T1 sequence (Q02156 1-737): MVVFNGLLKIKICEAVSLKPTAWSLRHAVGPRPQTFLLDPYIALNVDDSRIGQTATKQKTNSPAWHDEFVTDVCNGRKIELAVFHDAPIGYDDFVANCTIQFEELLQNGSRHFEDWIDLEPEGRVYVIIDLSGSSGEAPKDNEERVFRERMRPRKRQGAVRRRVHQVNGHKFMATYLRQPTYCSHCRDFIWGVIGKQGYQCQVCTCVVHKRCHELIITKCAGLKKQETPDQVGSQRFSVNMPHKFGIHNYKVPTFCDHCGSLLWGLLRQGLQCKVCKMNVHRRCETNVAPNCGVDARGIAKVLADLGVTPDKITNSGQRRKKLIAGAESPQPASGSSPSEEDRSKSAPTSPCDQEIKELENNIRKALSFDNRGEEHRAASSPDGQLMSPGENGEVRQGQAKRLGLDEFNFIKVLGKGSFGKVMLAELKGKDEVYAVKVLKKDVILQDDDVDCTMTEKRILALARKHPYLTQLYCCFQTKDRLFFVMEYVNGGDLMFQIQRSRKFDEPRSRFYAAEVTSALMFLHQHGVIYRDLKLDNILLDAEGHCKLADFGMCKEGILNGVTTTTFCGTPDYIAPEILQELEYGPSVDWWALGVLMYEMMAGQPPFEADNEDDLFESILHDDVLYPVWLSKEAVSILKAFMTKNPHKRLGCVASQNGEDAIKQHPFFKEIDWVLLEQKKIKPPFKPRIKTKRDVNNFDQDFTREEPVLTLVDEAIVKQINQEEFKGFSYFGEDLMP
Assay: High-throughput kinase assay
Type: biochemical
Conditions: 50 nM; read-out: Percent inhibition of kinase activity in vitro, PRKCE (PKC epsilon)
Method: as §1

Compound	inhibition at 0.05 µM
O=c1c2ccccc2[se]n1-c1nc(N[C@H]2CC[Se]C2)c2nc[nH]c2n1 [Compound 4]	5%
O=c1c2ccccc2[se]n1-c1nc(NC2CCCCC2)c2nc[nH]c2n1 [Compound 1]	6%
O=C1c2ccccc2CN1c1nc(NC2CCCCC2)c2nc[nH]c2n1 [SLLN-6C, reference compound]	4%

Target: PRKCH (PKC eta) (Homo sapiens, UniProt P24723)
Sequence (P24723 whole entry): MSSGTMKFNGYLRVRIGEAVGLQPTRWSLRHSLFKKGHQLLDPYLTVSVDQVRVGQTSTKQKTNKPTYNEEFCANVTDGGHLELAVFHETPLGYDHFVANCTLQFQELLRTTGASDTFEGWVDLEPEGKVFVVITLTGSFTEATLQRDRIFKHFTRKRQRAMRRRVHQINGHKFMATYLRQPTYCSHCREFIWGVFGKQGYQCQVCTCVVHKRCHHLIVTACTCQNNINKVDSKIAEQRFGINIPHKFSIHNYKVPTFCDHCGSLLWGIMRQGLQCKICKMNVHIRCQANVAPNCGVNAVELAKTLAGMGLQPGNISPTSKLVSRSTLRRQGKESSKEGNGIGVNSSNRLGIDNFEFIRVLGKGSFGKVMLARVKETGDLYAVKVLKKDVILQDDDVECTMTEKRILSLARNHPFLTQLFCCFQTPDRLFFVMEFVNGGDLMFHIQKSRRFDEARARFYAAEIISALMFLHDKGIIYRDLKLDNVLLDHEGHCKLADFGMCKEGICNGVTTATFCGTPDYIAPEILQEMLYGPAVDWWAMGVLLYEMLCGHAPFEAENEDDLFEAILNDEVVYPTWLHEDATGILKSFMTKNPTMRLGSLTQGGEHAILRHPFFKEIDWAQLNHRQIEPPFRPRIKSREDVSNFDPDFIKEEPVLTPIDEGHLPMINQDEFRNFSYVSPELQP
Assay: High-throughput kinase assay
Type: biochemical
Conditions: 50 nM; read-out: Percent inhibition of kinase activity in vitro, PRKCH (PKC eta)
Method: as §1

Compound	inhibition at 0.05 µM
O=c1c2ccccc2[se]n1-c1nc(N[C@H]2CC[Se]C2)c2nc[nH]c2n1 [Compound 4]	6%
O=c1c2ccccc2[se]n1-c1nc(NC2CCCCC2)c2nc[nH]c2n1 [Compound 1]	0%
O=C1c2ccccc2CN1c1nc(NC2CCCCC2)c2nc[nH]c2n1 [SLLN-6C, reference compound]	0%

Target: T2, PRKCZ (PKC zeta) (Homo sapiens, UniProt Q05513)
T2 sequence (Q05513 1-592): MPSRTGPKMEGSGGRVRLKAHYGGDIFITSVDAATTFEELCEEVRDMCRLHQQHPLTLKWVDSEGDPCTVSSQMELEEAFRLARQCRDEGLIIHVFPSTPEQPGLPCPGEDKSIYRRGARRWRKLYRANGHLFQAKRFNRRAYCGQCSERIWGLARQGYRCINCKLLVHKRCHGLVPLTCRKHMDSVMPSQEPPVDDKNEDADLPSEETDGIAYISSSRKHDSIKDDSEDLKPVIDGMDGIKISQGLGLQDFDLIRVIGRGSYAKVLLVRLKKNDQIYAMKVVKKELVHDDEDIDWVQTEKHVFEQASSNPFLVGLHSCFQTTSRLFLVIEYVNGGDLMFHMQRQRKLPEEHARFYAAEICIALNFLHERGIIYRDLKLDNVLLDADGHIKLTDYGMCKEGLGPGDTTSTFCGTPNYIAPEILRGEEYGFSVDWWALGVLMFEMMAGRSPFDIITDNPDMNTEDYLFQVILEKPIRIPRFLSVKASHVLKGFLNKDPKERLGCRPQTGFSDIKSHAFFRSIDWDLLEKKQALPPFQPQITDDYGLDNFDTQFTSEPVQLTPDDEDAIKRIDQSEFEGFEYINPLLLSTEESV
Assay: High-throughput kinase assay
Type: biochemical
Conditions: 50 nM; read-out: Percent inhibition of kinase activity in vitro, PRKCZ (PKC zeta)
Method: as §1

Compound	inhibition at 0.05 µM
O=c1c2ccccc2[se]n1-c1nc(N[C@H]2CC[Se]C2)c2nc[nH]c2n1 [Compound 4]	12%
O=c1c2ccccc2[se]n1-c1nc(NC2CCCCC2)c2nc[nH]c2n1 [Compound 1]	9%
O=C1c2ccccc2CN1c1nc(NC2CCCCC2)c2nc[nH]c2n1 [SLLN-6C, reference compound]	9%

Target: T3, PRKD1 (PKC mu) (Homo sapiens, UniProt Q15139)
T3 sequence (Q15139 1-912): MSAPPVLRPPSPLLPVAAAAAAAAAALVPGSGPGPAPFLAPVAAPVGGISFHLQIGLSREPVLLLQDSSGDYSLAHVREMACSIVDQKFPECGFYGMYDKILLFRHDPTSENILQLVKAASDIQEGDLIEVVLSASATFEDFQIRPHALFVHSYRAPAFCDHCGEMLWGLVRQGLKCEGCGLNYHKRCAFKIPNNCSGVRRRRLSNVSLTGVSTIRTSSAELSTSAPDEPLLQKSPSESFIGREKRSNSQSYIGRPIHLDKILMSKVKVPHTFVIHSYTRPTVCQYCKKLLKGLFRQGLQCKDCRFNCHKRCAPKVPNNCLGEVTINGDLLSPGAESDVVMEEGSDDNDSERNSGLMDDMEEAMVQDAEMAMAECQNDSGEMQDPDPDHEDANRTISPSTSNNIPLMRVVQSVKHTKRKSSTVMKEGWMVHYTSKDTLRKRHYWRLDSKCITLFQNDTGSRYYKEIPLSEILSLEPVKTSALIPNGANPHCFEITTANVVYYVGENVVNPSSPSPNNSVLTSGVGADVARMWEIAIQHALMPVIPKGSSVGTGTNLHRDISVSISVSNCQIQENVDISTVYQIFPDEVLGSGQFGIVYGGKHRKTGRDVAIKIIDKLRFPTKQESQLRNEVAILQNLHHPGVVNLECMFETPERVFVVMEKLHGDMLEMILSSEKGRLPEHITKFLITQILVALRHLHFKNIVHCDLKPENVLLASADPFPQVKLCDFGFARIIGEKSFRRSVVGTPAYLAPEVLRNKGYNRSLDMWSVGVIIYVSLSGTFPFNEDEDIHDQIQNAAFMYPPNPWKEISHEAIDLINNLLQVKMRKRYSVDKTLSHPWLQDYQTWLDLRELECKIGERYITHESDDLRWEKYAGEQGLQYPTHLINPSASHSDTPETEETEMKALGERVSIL
Assay: High-throughput kinase assay
Type: biochemical
Conditions: 50 nM; read-out: Percent inhibition of kinase activity in vitro, PRKD1 (PKC mu)
Method: as §1

Compound	inhibition at 0.05 µM
O=c1c2ccccc2[se]n1-c1nc(N[C@H]2CC[Se]C2)c2nc[nH]c2n1 [Compound 4]	7%
O=c1c2ccccc2[se]n1-c1nc(NC2CCCCC2)c2nc[nH]c2n1 [Compound 1]	5%
O=C1c2ccccc2CN1c1nc(NC2CCCCC2)c2nc[nH]c2n1 [SLLN-6C, reference compound]	6%
